Measured values: paper PMC7985297 (Communications Biology, 2021)
Several values for one entry are separate records, joined by “and”; a condition that tells them apart may be missing. Equal values may be shown once.

Legend:
[1] = tested on: DU145 cells; experiment: BrdU incorporation assay, DU145; assay type: cell-based, human; details: ATRA 10 µM
Procedure: Cells were treated with the inhibitors and stimulated with 1 nM of R1881 (+) or vehicle (−) for 24 to 72 h. Each data point represents the average from an independent experiment where the error bars show the mean ± s.e.m.
BrdU incorporation was determined with the colorimetric BrdU ELISA kit (Roche Diagnostics), according to the manufacturer’s protocol. In brief, cells were seeded in 96-well plates (LNCaP, 5000/well; LN95, 8000/well; PC-3 and DU145, 4000/wells) in media with reduced serum (0.5–1%). On the following day, cells were pre-treated with test compounds for 1 h and then incubated with 0.1 nM of R1881. After the indicated incubation times, cells were labeled with 10 μM of BrdU for 2 h and then fixed for the assay.

[2] = Body weight and tolerability in the xenograft study; assay type: in vivo, mice; details: ATRA 5mg
[3] = tested on: serum PSA; experiment: Quantification of serum PSA (ELISA) in xenograft-bearing mice; assay type: in vivo; details: ATRA compared to placebo; on average; did not reach statistical significance
Procedure: Serum levels for total PSA were measured by a PSA ELISA kit (Anogen, Mississauga, ON) with a lower limit sensitivity of ~1 ng/mL. Whole blood was sampled from the tail vein on days indicated or by cardiac puncture immediately after euthanasia. The serum fraction was separated by centrifugation at 12,000 rpm for 3 min at room temperature and then stored at −20 °C until further analysis. Serum samples were diluted tenfold for the assay and were compared to calibration standards, according to the manufacturer’s protocol. The concentration of total PSA was determined by a VersaMax ELISA microplate reader by measuring absorbance at 450 nm with a reference wavelength of 650 nm.

[4] = tested on: Ki-67, PSA and AR in LN95-D3 xenografts; experiment: Immunohistochemistry of LN95-D3 xenografts (Ki-67, PSA, AR); assay type: in vivo, mice
Source text: Fig. 8 Immunohistochemistry of LN95-D3 xenografts. a Representative images showing the histomorphology and expression of Ki-67, PSA, and AR from harvested tumors. Scale bars represent 100 µm. Statistical analysis for b the percentage of Ki-67-positive tumor cells and for the expression of c PSA and d AR. Error bars represent the mean ± s.d.
Sections were cut from formalin-fixed, paraffin-embedded tumor tissue at a thickness of 5 µm, deparaffinized in xylene, and then rehydrated in alcohols and distilled water. Endogenous peroxidase was blocked by incubating with a 3% hydrogen peroxide solution for 5 min. […] PSA was detected using a monoclonal mouse anti-human PSA antibody concentrate (ER-PR8; Dako). A negative control without the primary antibody was included for each sample on the same slide. Antigen was detected with 3,3-diaminobenzidine (DAB) and hematoxylin was used for counterstaining. Images were captured on an Axio Imager M2 microscope (Zeiss) at ×200 magnification. The percentage of Ki-67-positive cells was determined with ImageJ using the Cell Counter plugin. At least 1000 cells were scored from three images of representative tumors for each treatment group. The intensity of DAB staining for PSA was quantified by ImageJ using color deconvolution and measuring the mean gray value for the DAB image, where optical density = log(max intensity/mean intensity), and a max intensity of 255 for an 8-bit image.

[5] = target: T1, full-length AR (Homo sapiens, UniProt P10275, T878A); experiment: PSA(6.1 kb)-luciferase AR-driven reporter assay in LNCaP cells; assay type: cell-based; details: LNCaP, R1881 1 nM, 24 h; read-out: IC50, androgen-induced PSA(6.1 kb)-luciferase activity
T1 construct: Transcriptional activity of full-length AR was assessed in LNCaP cells; endogenous in cells; host or cells: LNCaP
T1 sequence (P10275 1-920 T878A): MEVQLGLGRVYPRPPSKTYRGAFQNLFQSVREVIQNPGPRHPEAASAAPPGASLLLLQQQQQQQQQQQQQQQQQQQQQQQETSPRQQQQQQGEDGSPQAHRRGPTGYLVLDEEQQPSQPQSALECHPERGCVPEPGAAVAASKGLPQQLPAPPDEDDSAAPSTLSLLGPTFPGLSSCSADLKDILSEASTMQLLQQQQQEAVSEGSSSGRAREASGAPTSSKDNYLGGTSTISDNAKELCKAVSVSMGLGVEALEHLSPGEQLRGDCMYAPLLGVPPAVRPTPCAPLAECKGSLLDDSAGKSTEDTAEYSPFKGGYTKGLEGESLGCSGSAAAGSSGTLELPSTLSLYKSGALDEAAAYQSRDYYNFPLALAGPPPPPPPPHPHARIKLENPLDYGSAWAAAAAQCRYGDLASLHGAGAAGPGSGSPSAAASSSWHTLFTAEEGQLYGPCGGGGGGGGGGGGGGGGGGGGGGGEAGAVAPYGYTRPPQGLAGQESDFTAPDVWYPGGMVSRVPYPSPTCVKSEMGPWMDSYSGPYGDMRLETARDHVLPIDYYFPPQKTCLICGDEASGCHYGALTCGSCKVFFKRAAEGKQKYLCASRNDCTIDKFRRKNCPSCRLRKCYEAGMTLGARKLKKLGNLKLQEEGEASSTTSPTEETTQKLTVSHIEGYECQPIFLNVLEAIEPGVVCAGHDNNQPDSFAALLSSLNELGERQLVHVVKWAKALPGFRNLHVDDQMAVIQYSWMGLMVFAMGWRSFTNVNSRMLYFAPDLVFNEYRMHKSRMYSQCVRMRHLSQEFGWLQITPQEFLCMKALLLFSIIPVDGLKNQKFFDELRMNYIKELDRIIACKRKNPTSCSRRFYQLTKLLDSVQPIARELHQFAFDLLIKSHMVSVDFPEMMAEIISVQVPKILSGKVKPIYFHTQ

[6] = target: T1, full-length AR; experiment: Probasin (PB)-luciferase AR-driven reporter assay in LNCaP cells; assay type: cell-based; details: 24 h, R1881 1 nM

## CC1=C(/C=C/C(C)=C/C=C/C(C)=C/C(=O)O)C(C)(C)CCC1 [ATRA, all-trans retinoic acid]
[1]
  effect on proliferation of DU145 cells: did not impact the proliferation of either PC-3 or DU145 cells
[1]; − R1881, ENZ 10 µM, EPI-002 25 µM, JUG 20 µM
  BrdU incorporation, DU145 (Fig. 4d): 0.607 and 0.932 and 1.111 and 0.945
[2]; treatment duration 0 days
  Body weight, individual animals (Fig. 7c): 26.7 and 29.9 and 28.1 and 28.2 and 29.3 and 28.3 and 30.2 (2×)
[2]; treatment duration 1 days, in g (unit assumed)
  Body weight, individual animals (Fig. 7c): 26.8 and 30.1 and 28.1 and 27.9 and 29.3 and 28.7 and 29 and 29.8
[2]; treatment duration 2 days
  Body weight, individual animals (Fig. 7c): 26.7 and 29.8 and 27.6 (2×) and 28.9 and 28.8 and 29.1 and 29.4
[2]; treatment duration 3 days
  Body weight, individual animals (Fig. 7c): 25.9 and 29 and 25.6 and 26.8 and 28.1 and 28.3 (2×) and 28.9
[2]; treatment duration 4 days, in g (unit assumed)
  Body weight, individual animals (Fig. 7c): 25.2 and 28.9 and 27 and 27.1 and 29.1 and 28.5 and 27.5 and 28.7
[2]; treatment duration 5 days, in g (unit assumed)
  Body weight, individual animals (Fig. 7c): 23.9 and 28.3 and 26.5 and 27 and 28.5 and 28.2 and 26.8 and 27.8
[2]; treatment duration 6 days, in g (unit assumed)
  Body weight, individual animals (Fig. 7c): 23.9 and 27.9 and 26.1 and 26.5 and 28.2 and 27.4 and 26.8 and 28
[2]; treatment duration 7 days
  Body weight, individual animals (Fig. 7c): 23.9 and 27.5 (2×) and 25.7 and 26.4 and 28.1 and 26.9 and 27.6
[2]; treatment duration 8 days, in g (unit assumed)
  Body weight, individual animals (Fig. 7c): 23.1 and 27.9 and 25.6 and 26.6 and 28.2 and 27.4 and 25.9 and 27.6
[2]; treatment duration 9 days
  Body weight, individual animals (Fig. 7c): 22.3 and 27.6 and 25.3 (2×) and 26.2 and 28.4 and 27.3 and 27.7
[2]; treatment duration 10 days
  Body weight, individual animals (Fig. 7c): 22.1 and 28.3 and 24.9 and 26.3 (2×) and 27.9 and 25.2 and 27.4
[2]; treatment duration 11 days, in g (unit assumed)
  Body weight, individual animals (Fig. 7c): 22 and 28 and 24.2 and 26 and 27.8 and 25.3 and 24.7 and 27.2
[2]; treatment duration 12 days, in g (unit assumed)
  Body weight, individual animals (Fig. 7c): 21.9 and 27.9 and 24.6 and 26.1
[3]
  reduction of PSA expression in sera, pilot study: 27%
[4]; LN95-D3 xenografts
  effect on number of Ki-67-positive tumor cells: decreased the number of Ki-67-positive tumor cells in xenografts
  levels of AR protein in xenografts (IHC): decreased slightly
[4]; LN95-D3 xenografts, ATRA 5 mg pellet, EPI-7170 30 mg/kg/d, one value per tumor, listed as CMC ATRA
  percentage of Ki-67-positive tumor cells (Fig. 8b): 8.32% and 15.81% and 16.91%
[4]; compared to the control
  effect on PSA expression in xenografts (IHC): decreased

## O=C1C=CC(=O)c2c(O)cccc21 [juglone]
[5]
  IC50: 10.9 µM
[6]; inhibitor 10 μM, read-out: PB-luciferase activity normalized to the induction by R1881 (=100) (Fig. 2b)
  remaining activity at 10 µM: 22.5%
[6]; read-out: IC50, androgen-induced PB-luciferase activity
  IC50: 6.45 µM
